Here are results for one compound from ChEMBL document CHEMBL4334516, “Kinase Chemodiversity from the Arctic: The Breitfussins” (J Med Chem, 2019).

Data set [1] deals with Serine/threonine-protein kinase 17A (Homo sapiens) (UniProt Q9UEE5). Description: Binding affinity to wild-type human partial length DRAK1 (R32 to E363 residues) expressed in bacterial expression system assessed as residual binding level at 10 uM by active-site directed competition binding assay based Kinomescan method relative to control.
Data set [2] has as its target Serine/threonine-protein kinase pim-3 (Homo sapiens, UniProt Q86V86). The data set can be described thus: Binding affinity to wild-type human partial length PIM3 (G16 to A317 residues) expressed in bacterial expression system by active-site directed competition binding assay based Kinomescan method.
Data set [3] has as its target T1, Mitogen-activated protein kinase kinase kinase 11 (Homo sapiens, UniProt Q16584). The data set can be described thus: Inhibition of MLK3 (unknown origin) assessed as residual enzyme activity at 1 uM by [33P]-ATP filter binding kinase assay relative to control.
Data set [4] concerns HepG2. Description: Cytotoxicity in human HepG2 cells assessed as reduction in cell viability incubated for 72 hrs by SRB assay. The following applies: HepG2, 72 h. A general note: Sulforhodamine B stains cellular protein and so reports cell mass.
Data set [5] concerns the target Interleukin-1 receptor-associated kinase 3 (Homo sapiens, UniProt Q9Y616). Description: Binding affinity to wild-type human partial length IRAK3 (V147 to E596 residues) expressed in bacterial expression system by active-site directed competition binding assay based Kinomescan method.
For data set [6], the target named is Myosin light chain kinase family member 4 (Homo sapiens, UniProt Q86YV6). Description: Binding affinity to wild-type human partial length MYLK4 (V79 to S380 residues) expressed in bacterial expression system by active-site directed competition binding assay based Kinomescan method.
Data set [7] has as its target Serine/threonine-protein kinase DCLK3 (Homo sapiens, UniProt Q9C098). The data set can be described thus: Binding affinity to wild-type human partial length DCAMKL3 (E140 to V628 residues) expressed in bacterial expression system by active-site directed competition binding assay based Kinomescan method.
In data set [8] the target is Serine/threonine-protein kinase pim-2 (Homo sapiens, UniProt Q9P1W9). The data set can be described thus: Binding affinity to wild-type human partial length PIM2 (M1 to E291 residues) expressed in bacterial expression system assessed as residual binding level at 10 uM by active-site directed competition binding assay based Kinomescan method relative to control.
The target in data set [9] is T1, Mitogen-activated protein kinase kinase kinase 11. Description: Binding affinity to wild-type human partial length MLK3 (I77 to W399 residues) expressed in bacterial expression system assessed as residual binding level at 10 uM by active-site directed competition binding assay based Kinomescan method relative to control.
In data set [10] the target is T2, Aurora kinase B (Homo sapiens, UniProt Q96GD4). The data set can be described thus: Inhibition of Aurora B (unknown origin) assessed as residual enzyme activity at 1 uM by [33P]-ATP filter binding kinase assay relative to control.
In data set [11] the target is Serine/threonine-protein kinase 36 (Homo sapiens, UniProt Q9NRP7). Description: Binding affinity to wild-type human partial length STK36 (M1 to T271 residues) expressed in bacterial expression system by active-site directed competition binding assay based Kinomescan method.
In data set [12] the target is Aurora kinase A (Homo sapiens) (UniProt O14965). The data set can be described thus: Binding affinity to wild-type human partial length AURKA (E122 to K401 residues) expressed in mammalian expression system assessed as residual binding level at 10 uM by active-site directed competition binding assay based Kinomescan method relative to control.
Data set [13] has as its target Non-receptor tyrosine-protein kinase TYK2 (Homo sapiens, UniProt P29597). The data set can be described thus: Binding affinity to wild-type human partial length TYK2 JH2 domain-pseudokinase expressed in mammalian expression system by active-site directed competition binding assay based Kinomescan method.
The target in data set [14] is Mitogen-activated protein kinase kinase kinase 9 (Homo sapiens, UniProt P80192). Description: Inhibition of MLK1 (unknown origin) assessed as residual enzyme activity at 50 uM by [33P]-ATP filter binding kinase assay relative to control.
The nature of data set [15]: Toxicity in zebrafish embryos assessed as induction of heart edema by measuring unaffected embryos level at 14 uM after 72 hrs (reference value: 100%). The class given is tissue-based, Danio rerio. The settings on record: in vivo.
The test system of data set [16] is MDA-MB-231. The data set can be described thus: Cytotoxicity in human MDA-MB-231 cells assessed as reduction in cell viability incubated for 72 hrs by SRB assay. The settings on record: MDA-MB-231, 72 h.
Data set [17] concerns the target T2, Aurora kinase B. The data set can be described thus: Inhibition of Aurora B (unknown origin) assessed as residual enzyme activity at 50 uM by [33P]-ATP filter binding kinase assay relative to control.
For data set [18], the system named is JIMT-1. The data set can be described thus: Cytotoxicity in human JIMT1 cells assessed as reduction in cell viability incubated for 72 hrs by SRB assay. The settings on record: JIMT-1, 72 h.
In data set [19] the target is Myosin light chain kinase family member 4 (Homo sapiens) (UniProt Q86YV6). Description: Binding affinity to wild-type human partial length MYLK4 (V79 to S380 residues) expressed in bacterial expression system assessed as residual binding level at 10 uM by active-site directed competition binding assay based Kinomescan method relative to control.
The nature of data set [20]: Toxicity in zebrafish embryos assessed as survival at 0.1 uM after 72 hrs (reference value: 95%). The following applies: in vivo. Set-up: species or system Danio rerio.
Data set [21] in a line: Stability in human plasma assessed as parent compound remaining level at 5 uM incubated for 1 hr by LC-MS analysis. It counts as ADME, cell-free. The settings on record: read-out: Stability.
In data set [22] the target is Citron Rho-interacting kinase (Homo sapiens, UniProt O14578). Description: Binding affinity to wild-type human partial length CIT (M68 to E432 residues) expressed in bacterial expression system by active-site directed competition binding assay based Kinomescan method.
For data set [23], the target named is T3, Mitogen-activated protein kinase kinase kinase kinase 2 (Homo sapiens) (UniProt Q12851).
T3 sequence (whole entry): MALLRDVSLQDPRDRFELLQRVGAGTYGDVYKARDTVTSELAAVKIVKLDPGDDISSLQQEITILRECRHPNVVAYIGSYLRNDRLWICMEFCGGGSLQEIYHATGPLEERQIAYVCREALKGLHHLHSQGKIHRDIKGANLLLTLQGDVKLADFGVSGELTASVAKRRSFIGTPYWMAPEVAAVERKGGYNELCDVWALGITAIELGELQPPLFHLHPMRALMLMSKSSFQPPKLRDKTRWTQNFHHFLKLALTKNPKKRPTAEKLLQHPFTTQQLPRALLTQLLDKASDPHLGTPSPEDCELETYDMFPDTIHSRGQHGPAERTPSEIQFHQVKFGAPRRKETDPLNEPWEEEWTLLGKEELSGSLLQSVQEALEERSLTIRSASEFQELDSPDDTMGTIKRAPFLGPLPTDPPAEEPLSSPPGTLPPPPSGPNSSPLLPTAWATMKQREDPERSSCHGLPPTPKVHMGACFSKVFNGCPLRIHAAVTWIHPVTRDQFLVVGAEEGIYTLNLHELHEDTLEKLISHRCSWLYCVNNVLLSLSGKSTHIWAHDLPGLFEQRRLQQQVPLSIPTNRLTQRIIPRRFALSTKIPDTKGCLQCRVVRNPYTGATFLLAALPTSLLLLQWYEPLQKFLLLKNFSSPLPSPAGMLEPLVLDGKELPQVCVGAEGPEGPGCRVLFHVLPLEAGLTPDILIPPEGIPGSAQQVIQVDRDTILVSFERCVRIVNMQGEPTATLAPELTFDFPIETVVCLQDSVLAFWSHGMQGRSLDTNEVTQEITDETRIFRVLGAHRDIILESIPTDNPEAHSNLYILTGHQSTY
Description: Inhibition of GCK (unknown origin) assessed as residual enzyme activity at 1 uM by [33P]-ATP filter binding kinase assay relative to control.

SMILES strings stand for the structures.

T1 sequence (Q16584 whole entry, looked up): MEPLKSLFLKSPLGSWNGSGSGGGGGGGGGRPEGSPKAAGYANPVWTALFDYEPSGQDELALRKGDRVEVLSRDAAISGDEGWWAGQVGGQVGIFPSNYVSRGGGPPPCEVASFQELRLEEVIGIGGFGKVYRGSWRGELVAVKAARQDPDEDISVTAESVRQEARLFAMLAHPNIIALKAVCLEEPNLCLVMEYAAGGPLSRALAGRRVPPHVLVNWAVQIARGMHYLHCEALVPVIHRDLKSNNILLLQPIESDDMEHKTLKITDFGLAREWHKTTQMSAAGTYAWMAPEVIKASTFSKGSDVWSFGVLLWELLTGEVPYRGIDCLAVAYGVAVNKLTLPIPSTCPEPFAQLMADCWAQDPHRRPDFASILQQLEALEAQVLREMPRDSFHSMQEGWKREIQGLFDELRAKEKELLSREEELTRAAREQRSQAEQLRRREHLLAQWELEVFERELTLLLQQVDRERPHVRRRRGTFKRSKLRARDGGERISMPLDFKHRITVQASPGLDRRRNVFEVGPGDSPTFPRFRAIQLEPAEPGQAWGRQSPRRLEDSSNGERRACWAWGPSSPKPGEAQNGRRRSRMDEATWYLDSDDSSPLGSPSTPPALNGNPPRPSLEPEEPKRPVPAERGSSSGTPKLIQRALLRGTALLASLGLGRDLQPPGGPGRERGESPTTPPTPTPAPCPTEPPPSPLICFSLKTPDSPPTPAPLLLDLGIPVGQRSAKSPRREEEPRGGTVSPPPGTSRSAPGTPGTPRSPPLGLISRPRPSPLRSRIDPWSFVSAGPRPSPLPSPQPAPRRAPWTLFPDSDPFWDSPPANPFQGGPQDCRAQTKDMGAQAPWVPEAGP
T2 sequence (Q96GD4 whole entry, the tested form may be a part): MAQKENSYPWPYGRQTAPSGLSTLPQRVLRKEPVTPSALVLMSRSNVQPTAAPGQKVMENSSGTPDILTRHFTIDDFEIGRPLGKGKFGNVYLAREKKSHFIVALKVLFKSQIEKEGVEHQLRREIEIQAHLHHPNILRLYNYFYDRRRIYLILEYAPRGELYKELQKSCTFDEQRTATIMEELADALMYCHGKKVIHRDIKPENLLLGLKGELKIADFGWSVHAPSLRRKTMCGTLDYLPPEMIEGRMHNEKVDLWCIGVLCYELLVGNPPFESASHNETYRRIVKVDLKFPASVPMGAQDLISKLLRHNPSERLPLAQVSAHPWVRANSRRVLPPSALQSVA
Chain of Aurora kinase A (Homo sapiens) (O14965 whole entry, the tested form may be a part): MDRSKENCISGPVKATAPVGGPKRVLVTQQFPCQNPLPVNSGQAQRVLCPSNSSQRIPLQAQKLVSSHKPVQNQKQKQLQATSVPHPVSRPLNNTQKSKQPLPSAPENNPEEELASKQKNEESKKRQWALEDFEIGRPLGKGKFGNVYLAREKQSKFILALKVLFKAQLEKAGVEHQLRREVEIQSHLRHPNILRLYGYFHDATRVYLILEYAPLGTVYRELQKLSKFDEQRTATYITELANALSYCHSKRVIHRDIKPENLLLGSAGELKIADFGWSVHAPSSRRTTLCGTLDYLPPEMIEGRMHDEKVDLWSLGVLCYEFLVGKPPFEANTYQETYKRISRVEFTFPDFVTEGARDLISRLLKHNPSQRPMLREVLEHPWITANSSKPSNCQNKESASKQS
Chain of Serine/threonine-protein kinase DCLK3 (Q9C098 whole entry, the tested form may be a part): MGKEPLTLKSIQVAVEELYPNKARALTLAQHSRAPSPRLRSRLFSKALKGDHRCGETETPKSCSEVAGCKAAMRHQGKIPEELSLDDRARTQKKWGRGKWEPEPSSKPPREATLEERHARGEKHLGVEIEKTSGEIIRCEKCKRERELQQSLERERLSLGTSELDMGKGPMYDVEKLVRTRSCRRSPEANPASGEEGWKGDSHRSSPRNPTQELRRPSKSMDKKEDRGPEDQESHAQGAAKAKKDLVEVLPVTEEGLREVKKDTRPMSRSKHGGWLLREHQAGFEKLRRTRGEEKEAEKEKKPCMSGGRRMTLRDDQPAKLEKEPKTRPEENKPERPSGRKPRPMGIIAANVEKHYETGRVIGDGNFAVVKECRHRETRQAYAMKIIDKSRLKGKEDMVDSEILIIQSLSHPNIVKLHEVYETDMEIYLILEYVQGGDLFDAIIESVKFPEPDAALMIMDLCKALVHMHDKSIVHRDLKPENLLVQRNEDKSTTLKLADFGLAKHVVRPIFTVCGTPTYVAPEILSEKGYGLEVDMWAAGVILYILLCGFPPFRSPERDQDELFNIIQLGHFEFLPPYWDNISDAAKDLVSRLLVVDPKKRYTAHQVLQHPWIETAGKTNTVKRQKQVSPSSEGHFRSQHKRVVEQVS
Chain of Serine/threonine-protein kinase pim-2 (Q9P1W9 whole entry, looked up, the tested form may be a part): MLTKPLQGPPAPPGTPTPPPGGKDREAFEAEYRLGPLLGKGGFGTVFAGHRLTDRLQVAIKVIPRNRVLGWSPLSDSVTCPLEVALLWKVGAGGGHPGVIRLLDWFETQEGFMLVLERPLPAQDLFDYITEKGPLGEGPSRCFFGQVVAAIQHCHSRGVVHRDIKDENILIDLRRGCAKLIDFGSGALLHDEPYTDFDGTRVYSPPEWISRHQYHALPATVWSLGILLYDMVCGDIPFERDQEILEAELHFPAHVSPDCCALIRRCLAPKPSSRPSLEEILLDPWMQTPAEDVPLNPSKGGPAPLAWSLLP
Chain of Serine/threonine-protein kinase 36 (Q9NRP7 whole entry, the tested form may be a part): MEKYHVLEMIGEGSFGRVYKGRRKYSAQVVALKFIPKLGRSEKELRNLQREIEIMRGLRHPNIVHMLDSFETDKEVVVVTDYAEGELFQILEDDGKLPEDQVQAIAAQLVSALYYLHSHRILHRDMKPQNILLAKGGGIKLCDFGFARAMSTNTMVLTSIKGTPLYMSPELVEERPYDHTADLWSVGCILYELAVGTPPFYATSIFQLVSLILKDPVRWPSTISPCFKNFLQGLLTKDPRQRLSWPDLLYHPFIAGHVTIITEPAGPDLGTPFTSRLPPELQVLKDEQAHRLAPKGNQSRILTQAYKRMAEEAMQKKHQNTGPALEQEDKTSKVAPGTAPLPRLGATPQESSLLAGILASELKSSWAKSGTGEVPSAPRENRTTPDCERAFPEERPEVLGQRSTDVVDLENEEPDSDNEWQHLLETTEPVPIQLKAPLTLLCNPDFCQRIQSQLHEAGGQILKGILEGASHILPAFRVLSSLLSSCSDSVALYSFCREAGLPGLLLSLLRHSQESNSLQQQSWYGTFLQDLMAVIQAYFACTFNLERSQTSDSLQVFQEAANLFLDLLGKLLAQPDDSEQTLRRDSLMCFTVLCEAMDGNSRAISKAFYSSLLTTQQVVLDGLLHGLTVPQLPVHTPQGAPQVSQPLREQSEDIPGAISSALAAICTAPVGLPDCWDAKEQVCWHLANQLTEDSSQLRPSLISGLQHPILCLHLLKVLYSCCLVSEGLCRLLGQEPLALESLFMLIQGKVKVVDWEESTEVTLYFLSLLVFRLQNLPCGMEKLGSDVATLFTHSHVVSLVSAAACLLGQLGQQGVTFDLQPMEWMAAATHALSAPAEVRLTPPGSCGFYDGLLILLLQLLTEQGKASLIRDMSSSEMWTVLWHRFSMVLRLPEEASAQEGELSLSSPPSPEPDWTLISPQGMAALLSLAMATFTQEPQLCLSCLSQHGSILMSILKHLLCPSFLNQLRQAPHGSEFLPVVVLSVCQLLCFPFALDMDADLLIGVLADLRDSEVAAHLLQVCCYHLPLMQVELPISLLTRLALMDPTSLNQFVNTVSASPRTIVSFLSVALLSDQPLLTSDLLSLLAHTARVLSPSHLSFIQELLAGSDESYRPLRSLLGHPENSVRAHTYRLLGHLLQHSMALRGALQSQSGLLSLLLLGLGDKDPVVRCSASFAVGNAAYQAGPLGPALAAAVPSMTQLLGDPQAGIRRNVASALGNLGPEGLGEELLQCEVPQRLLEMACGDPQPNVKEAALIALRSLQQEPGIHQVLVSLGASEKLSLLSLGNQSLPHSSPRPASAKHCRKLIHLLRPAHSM
Chain of Interleukin-1 receptor-associated kinase 3 (Q9Y616 whole entry, the tested form may be a part): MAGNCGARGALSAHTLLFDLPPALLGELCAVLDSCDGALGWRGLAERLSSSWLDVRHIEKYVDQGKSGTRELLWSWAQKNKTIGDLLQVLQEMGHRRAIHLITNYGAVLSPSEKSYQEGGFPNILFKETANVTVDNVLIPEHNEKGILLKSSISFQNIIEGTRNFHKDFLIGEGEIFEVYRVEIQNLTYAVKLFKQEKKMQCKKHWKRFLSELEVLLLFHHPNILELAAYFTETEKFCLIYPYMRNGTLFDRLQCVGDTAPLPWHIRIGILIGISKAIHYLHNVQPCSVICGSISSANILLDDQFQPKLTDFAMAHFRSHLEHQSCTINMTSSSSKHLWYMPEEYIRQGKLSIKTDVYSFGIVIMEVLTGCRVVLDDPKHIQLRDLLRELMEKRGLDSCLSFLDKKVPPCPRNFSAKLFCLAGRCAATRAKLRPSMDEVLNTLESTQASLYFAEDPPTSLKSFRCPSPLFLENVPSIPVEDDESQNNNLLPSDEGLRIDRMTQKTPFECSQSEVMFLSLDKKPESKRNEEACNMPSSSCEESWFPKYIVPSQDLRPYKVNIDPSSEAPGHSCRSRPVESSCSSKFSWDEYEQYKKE
Chain of Myosin light chain kinase family member 4 (Homo sapiens) (Q86YV6 whole entry, the tested form may be a part): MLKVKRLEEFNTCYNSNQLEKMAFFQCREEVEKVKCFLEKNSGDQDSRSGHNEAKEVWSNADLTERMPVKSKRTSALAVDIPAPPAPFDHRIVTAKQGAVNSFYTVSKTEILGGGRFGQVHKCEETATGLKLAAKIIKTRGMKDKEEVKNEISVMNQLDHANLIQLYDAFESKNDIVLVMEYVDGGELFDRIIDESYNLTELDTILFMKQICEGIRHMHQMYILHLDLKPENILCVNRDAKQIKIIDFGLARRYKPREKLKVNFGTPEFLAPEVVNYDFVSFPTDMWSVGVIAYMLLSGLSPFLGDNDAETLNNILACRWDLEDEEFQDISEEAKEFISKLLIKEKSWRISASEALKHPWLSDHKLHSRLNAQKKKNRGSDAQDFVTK
Chain of Myosin light chain kinase family member 4 (Q86YV6 whole entry, the tested form may be a part): as above

What is called Kd is the concentration at which binding is half-saturated. Higher therefore signals weaker binding. As usually defined, the IC50 is the point on the concentration scale where inhibition reaches its midpoint. `COc1cc2c(-c3cnc(-c4ccc[nH]4)o3)c[nH]c2cc1Br`: the Activity in data set [1] was 2.9%; in data set [3], 20%; in data set [8], 54%; in data set [9], 56%; in data set [10] it was 33%; in [12] it was 80%. In addition, the Activity in data set [14] is 5%; in data set [15] it was 100%; in data set [17], 6%; in data set [19], 0.25%; in [23], 31%. For the same compound, the dissociation constant Kd in data set [2] is 4700 nM; in data set [5], 1700 nM; in data set [6], 430 nM; in [7], 1800 nM; in [11] it was 2700 nM; in [13], 1800 nM. In [22], the affinity, expressed as Kd, was 2700 nM. The IC50 in data set [4] was 3000 nM; in data set [16], above 30000 nM; in data set [18], 4170 nM. Further, the survival at 72 h, 0.1 µM in [20] is 100%. In addition, in data set [21], the remaining at 1 h, 5 µM is 83%.
